Earlier results on 1 compound are cited in patent US9993551B2, “Combination therapies of EGFR inhibitors” (NOVARTIS AG, priority 2014, dated 2018).

Series [1] deals with EGFR mutant (L858R, ex19del and T790M) cancer models. The settings on record: in vitro and in vivo.
The target of series [2] is WT EGFR (Homo sapiens, UniProt P00533).
In series [3] the test system is EGFR activating and acquired resistance mutants (L858R, ex19del and T790M). The settings on record: targeted covalent irreversible EGFR inhibitor.

WT EGFR, sequence (P00533 25-1210): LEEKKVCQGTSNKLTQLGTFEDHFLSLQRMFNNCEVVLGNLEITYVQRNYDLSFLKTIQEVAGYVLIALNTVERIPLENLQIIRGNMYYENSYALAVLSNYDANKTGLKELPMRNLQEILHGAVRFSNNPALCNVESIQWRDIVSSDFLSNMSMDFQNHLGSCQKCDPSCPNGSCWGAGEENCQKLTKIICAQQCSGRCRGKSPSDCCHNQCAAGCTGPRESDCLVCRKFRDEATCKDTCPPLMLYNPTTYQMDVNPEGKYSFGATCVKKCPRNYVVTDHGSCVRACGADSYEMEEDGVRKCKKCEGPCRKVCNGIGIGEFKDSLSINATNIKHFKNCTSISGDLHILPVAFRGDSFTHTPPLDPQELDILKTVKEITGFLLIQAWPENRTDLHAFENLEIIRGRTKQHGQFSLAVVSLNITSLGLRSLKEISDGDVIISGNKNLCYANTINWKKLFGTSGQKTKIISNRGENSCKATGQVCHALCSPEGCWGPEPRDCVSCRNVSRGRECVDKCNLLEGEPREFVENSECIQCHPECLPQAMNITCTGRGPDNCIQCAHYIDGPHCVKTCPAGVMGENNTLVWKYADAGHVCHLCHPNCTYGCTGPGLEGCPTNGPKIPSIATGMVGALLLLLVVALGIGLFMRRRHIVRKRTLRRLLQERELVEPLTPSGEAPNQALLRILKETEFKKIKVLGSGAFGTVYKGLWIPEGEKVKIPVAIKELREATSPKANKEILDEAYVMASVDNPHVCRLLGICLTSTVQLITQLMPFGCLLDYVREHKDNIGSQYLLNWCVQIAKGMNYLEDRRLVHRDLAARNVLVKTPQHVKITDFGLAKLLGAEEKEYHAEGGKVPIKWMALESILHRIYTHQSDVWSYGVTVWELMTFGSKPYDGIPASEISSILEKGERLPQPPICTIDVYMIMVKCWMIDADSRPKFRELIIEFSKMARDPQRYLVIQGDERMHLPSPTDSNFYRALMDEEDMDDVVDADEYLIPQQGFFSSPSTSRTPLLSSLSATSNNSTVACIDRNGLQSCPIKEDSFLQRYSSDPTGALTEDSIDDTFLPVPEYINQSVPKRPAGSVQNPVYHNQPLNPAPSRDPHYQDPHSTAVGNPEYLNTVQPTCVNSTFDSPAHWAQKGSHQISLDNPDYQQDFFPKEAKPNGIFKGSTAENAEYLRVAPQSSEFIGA

`Cc1cc(C(=O)Nc2nc3cccc(Cl)c3n2[C@@H]2CCCCN(C(=O)/C=C/CN(C)C)C2)ccn1` [EGF816, (R,E)-N-(7-chloro-1-(1-(4-(dimethylamino)but-2-enoyl)azepan-3-yl)-1H-benzo[d]imidazol-2-yl)-2-methylisonicotinamide]: the “efficacy in EGFR mutant cancer models” value in series [1] is “significant efficacy”. In series [2], the “effect on WT EGFR” value is recorded as “sparing WT EGFR”. Besides, the “inhibition of mutant EGFR” value in series [3] is on record as “selectively inhibits”.
